Test results published in US6361998B1, “Efficient culture of stem cells for the production of hemoglobin” (Hemosol Inc., priority 1999, dated 2002).

Assays:
CD34^+ enriched cells [1] = experiment: Expansion and differentiation of CD34+ enriched cells with SA added to EPSFM+LDL; assay type: cell-based, human
Description: CD34^+ enriched cells were isolated and cultured as described in Example 1. Succinylacetone (SA), a heme synthesis inhibitor, was added to EPSFM+LDL at concentrations of 25 to 250 uM at the initiation of culture. Results are depicted in Table 4 and FIGS. 4 to 6. The addition of 50 uM SA to EPSFM+LDL increased cell expansion 8-fold when compared to controls without SA (FIG. 4).

CD34^+ enriched cells [2] = experiment: Addition of SA and hemin to EPSFM+LDL culture of CD34+ enriched cells, Hb content; assay type: cell-based, human; conditions: at culture termination; SA 25 uM; hemin (if any) 25 uM at initiation of culture
Description: CD34^+ enriched cells were isolated and cultured in EPSFM+LDL as described in Example 1. In some samples, SA was added to EPSFM+LDL to a final concentration of 25 uM. In some instances, hemin was added to the SA containing cultures to a final hemin concentration of 25 uM. Hemin was added to some SA containing cultures at the initiation of culture and to others after 15 days of culture. The addition of SA, an inhibitor of heme synthesis, to EPSFM+LDL increased the fold expansion of cells obtained but reduced the percentage of GlyA^+ cells and the Hb content of these cells (Table 10). The low hemoglobin content was ameliorated by the addition of hemin to EPSFM+LDL+SA at the initiation of culture. However, as the percentage of GlyA^+ cells was decreased in this instance, the total amount of Hb per culture is similar to that observed with culture in EPSFM+LDL alone. The addition of hemin after 15 days of culture, instead of at culture initiation, further increased the fold expansion without reducing the percentage of GlyA^+ cells. Unexpectedly, the amount of hemoglobin per cell increased to approximately that obtained with EPSFM+LDL.

[3] = test system: CD34^+ enriched cells from human umbilical cord blood LDMNC; experiment: Expansion and differentiation of CD34+ enriched cells in serum-free suspension culture; assay type: cell-based; conditions: hemin added to defined culture medium (25 uM, FIG. 3)
Description: CD34^+ cells were enriched from human umbilical cord blood LDMNC by lineage depletion of cells expressing CD3, CD14, CD16, CD19, CD24, CD56, CD66b and glycophorin A (GlyA) to enrich lin^− cells. The viability of CD34^+ cells pre- and post-enrichment was determined by trypan-blue dye exclusion and cells were characterized for CD34 and CD45 co-expression by standard flow cytometry methods (see Table 2, FIG. 1).
CD34^+ cells were cultured at an initial seeding density of 1-2×10^4 cells/ml in EPSFM+LDL with the composition described in Table 1B. […]
At the end of 30 days in culture cells were fully differentiated erythroid cells with 57% of the cells staining positively with benzidine and 85% of the cells expressing the erythroid-specific membrane glycoprotein glycophorin A (GlyA). […] The amount of hemoglobin per cell was determined to be 5.2 pg using Western blot analysis. […]
CD34^+ enriched cells were cultured for 7 to 11 days, as described in Example 1. […] Fewer than 2% of the cells expressed CD34, and hematopoietic progenitors were present at a frequency of 21 BFU-E, 33 CFU-E and 25 CFU-GM per 1×10^5 cells as detected in methylcellulose colony forming assay. […] Field strength, capacitance, and pulse width were optimized to achieve an average transfection efficiency of approximately 20% as measured at 24 hours post-electroporation.

BaF3 cells [4] = experiment: Cytokine-dependency growth of BaF3 cells transfected with human EpoR constructs; assay type: cell-based, murine; conditions: for growth of BaF3 transfectants: no exogenous IL-3
Description: The functionality of the EpoR(t439; R154C) was tested and compared to the wild-type EpoR (wtEpoR) and EpoR(t439) using the BaF3 cell line. The cDNAs encoding these three different EpoRs were subcloned into the pcDNA3.1 expression vector, which provides high-level constitutive expression of proteins in mammalian cells and also contains the neomycin gene for the selection of stable transfectant with G418. The vector constructs were electroporated into BaF3 cells and stable transfectants were isolated in the presence of 600 ug/ml G418. BaF3 transfectants were maintained in RPMI-1640 with 10% FBS and 5% WEHI conditioned medium (a source of murine IL-3), except during the cytokine-dependency studies when cells were maintained in RPMI-1640 plus 10% FBS, along with the indicated cytokines. Growth of the different EpoR transfectants in the presence of either murine IL-3 or two different doses of Epo was compared to that of the parental (non-transfected) BaF3 cells (FIG. 7). […] All three EpoR constructs encode functional receptors that allow expansion of the BaF3 cells in the presence of Epo without exogenous IL-3.

BaF3 cells [5] = conditions: cited from earlier work

In the case of `CC(=O)CC(=O)CCC(=O)O` [SA, Succinylacetone], the “Total fold expansion (n = 3)” value (CD34^+ enriched cells [1]; 25 uM SA added to EPSFM + LDL) is reported as 6.36 × 10^6, the “Total fold expansion (n = 3)” value (CD34^+ enriched cells [1]; 50 uM SA added to EPSFM + LDL) is reported as 2.89 × 10^7 and the “increase in cell expansion compared to controls without SA” value (CD34^+ enriched cells [1]; 50 uM SA in EPSFM+LDL) is reported as 8 fold. For the same molecule, the “suppression of BZ staining and GlyA expression” value (CD34^+ enriched cells [1]; 250 uM SA) was “Maximum suppression”, the “Total fold expansion (n = 3)” value (CD34^+ enriched cells [1]; 250 uM SA added to EPSFM + LDL) was 6.77 × 10^6 and the “percentages of BZ+ and GlyA+ cells after SA removal” value (CD34^+ enriched cells [1]; SA removed after at least 20 days of culture, by the following passage) was “increased significantly”. For the same molecule, the “erythroid differentiation (percentages of BZ+ and GlyA+ cells)” value (CD34^+ enriched cells [1]; increasing amounts of SA (25 to 250 uM)) was “reduced erythroid differentiation”, the “% GlyA positive cells” value (CD34^+ enriched cells [2]) was 74% and the “Hb per GlyA^+ cell” value (CD34^+ enriched cells [2]) was 0.95 pg/cell. The “Total Hb per culture” value (CD34^+ enriched cells [2]) was 0.03 g, the “Total number of GlyA^+ cells” value (CD34^+ enriched cells [2]) was 2.9 × 10^10 and the “Total number of cells” value (CD34^+ enriched cells [2]) was 3.9 × 10^10.

With hemin the “effect of hemin addition on Hb content, number of GlyA cells and BZ positive cells” value [3] was “did not substantially increase”.

B1: EpoR: full length wild-type human erythropoietin receptor (protein)
chain: APPPNLPDPKFESKAALLAARGPEELLCFTERLEDLVCFWEEAASAGVGPGNYSFSYQLEDEPWKLCRLHQAPTARGAVRFWCSLPTADTSSFVPLELRVTAASGAPRYHRVIHINEVVLLDAPVGLVARLADESGHVVLRWLPPPETPMTSHIRYEVDVSAGNGAGSVQRVEILEGRTECVLSNLRGRTRYTFAVRARMAEPSFGGFWSAWSEPVSLLTPSDLDPLILTLSLILVVILVLLTVLALLSHRRALKQKIWPGIPSPESEFEGLFTTHKGNFQLWLYQNDGCLWWSPCTPFTEDPPASLEVLSERCWGTMQAVEPGTDDEGPLLEPVGSEHAQDTYLVLDKWLLPRNPPSEDLPGPGGSVDIVAMDEGSEASSCSSALASKPSPEGASAASFEYTILDPSSQLLRPWTLCPELPPTPPHLKYLYLVVSDSGISTDYSSGDSQGAQGGLSDGPYSNPYENSLIPAAEPLPPSYVACS
In the case of B1, the “growth of BaF3 transfectants” value (BaF3 cells [4]; 0.02 U/ml Epo) is reported as “did not grow” and the “growth of BaF3 transfectants” value (BaF3 cells [4]; 2 U/ml Epo) is reported as “grew in the presence of 2 U/ml Epo alone”.

B2: truncated EpoR: murine EpoR with C-terminal 42 amino acids replaced with Ala-Leu (Yoshimura 1990) (protein, listed as Homo sapiens)
chain: MDHLGASLWPQVGSLCLLLAGAAWAPPPNLPDPKFESKAALLAARGPEELLCFTERLEDLVCFWEEAASAGVGPGNYSFSYQLEDEPWKLCRLHQAPTARGAVRFWCSLPTADTSSFVPLELRVTAASGAPRYHRVIHINEVVLLDAPVGLVARLADESGHVVLRWLPPPETPMTSHIRYEVDVSAGNGAGSVQRVEILEGRTECVLSNLRGRTRYTFAVRARMAEPSFGGFWSAWSEPVSLLTPSDLDPLILTLSLILVVILVLLTVLALLSHRRALKQKIWPGIPSPESEFEGLFTTHKGNFQLWLYQNDGCLWWSPCTPFTEDPPASLEVLSERCWGTMQAVEPGTDDEGPLLEPVGSEHAQDTYLVLDKWLLPRNPPSEDLPGPGGSVDIVAMDEGSEASSCSSALASKPSPEGASAASFEYTILDPSSQLLRP
In the case of B2, the “responsiveness to Epo relative to the wild-type EpoR” value (BaF3 cells [5]; murine EpoR, C-terminal 42 amino acids replaced with Ala-Leu, expressed in BaF3 cells) is given as 3-5 times.

B3: EpoR(t439): human EpoR truncated at Trp439; hypersensitive to Epo (SEQ ID NOS 4 and 5) (protein, listed as Homo sapiens)
chain: MDHLGASLWPQVGSLCLLLAGAAWAPPPNLPDPKFESKAALLAARGPEELLCFTERLEDLVCFWEEAASAGVGPGNYSFSYQLEDEPWKLCRLHQAPTARGAVRFWCSLPTADTSSFVPLELRVTAASGAPRYHRVIHINEVVLLDAPVGLVARLADESGHVVLRWLPPPETPMTSHIRYEVDVSAGNGAGSVQRVEILEGRTECVLSNLRGRTRYTFAVRARMAEPSFGGFWSAWSEPVSLLTPSDLDPLILTLSLILVVILVLLTVLALLSHRRALKQKIWPGIPSPESEFEGLFTTHKGNFQLWLYQNDGCLWWSPCTPFTEDPPASLEVLSERCWGTMQAVEPGTDDEGPLLEPVGSEHAQDTYLVLDKWLLPRNPPSEDLPGPGGSVDIVAMDEGSEASSCSSALASKPSPEGASAASFEYTILDPSSQLLRP
For B3, the “growth of BaF3 transfectants” value (BaF3 cells [4]; 0.02 U/ml Epo) was “grew equally well”, the “growth of BaF3 transfectants” value (BaF3 cells [4]; 2 U/ml Epo) was “grew equally well” and the “expansion of BaF3 cells” value (BaF3 cells [4]; absence of exogenous cytokines) was “did not support cell expansion”. The “functionality of the EpoR” value (BaF3 cells [4]; conclusion from BaF3 growth) was “functional and hypersensitive to Epo”.

B4: EpoR(R129C): murine EpoR with Arg129 replaced by Cys, constitutively active (literature) (protein, UniProt P14753 25-507, looked up, variant R129C)
Erythropoietin receptor: APSPSLPDPKFESKAALLASRGSEELLCFTQRLEDLVCFWEEAASSGMDFNYSFSYQLEGESRKSCSLHQAPTVRGSVRFWCSLPTADTSSFVPLELQVTEASGSPRYHRIIHINEVVLLDAPAGLLACRAEEGSHVVLRWLPPPGAPMTTHIRYEVDVSAGNRAGGTQRVEVLEGRTECVLSNLRGGTRYTFAVRARMAEPSFSGFWSAWSEPASLLTASDLDPLILTLSLILVLISLLLTVLALLSHRRTLQQKIWPGIPSPESEFEGLFTTHKGNFQLWLLQRDGCLWWSPGSSFPEDPPAHLEVLSEPRWAVTQAGDPGADDEGPLLEPVGSEHAQDTYLVLDKWLLPRTPCSENLSGPGGSVDPVTMDEASETSSCPSDLASKPRPEGTSPSSFEYTILDPSSQLLCPRALPPELPPTPPHLKYLYLVVSDSGISTDYSSGGSQGVHGDSSDGPYSHPYENSLVPDSEPLHPGYVACS
In the case of B4, the “cytokine dependence of BaF3 cell growth” value (BaF3 cells [5]; over-expression of murine EpoR(R129C)) is listed as “permits cytokine-independent growth of BaF3 cells”.
